Patent publication US20020055528A1, “Artemisinin analogs having antimalarial, antiproliferative, and antitumor activities and chemoselective methods of making the same” (priority 1999, published 2002)
Like-named read-outs stand apart in the source and are kept apart here.

Experiments:
K-562 = test: NCI 60 cell line screen (SRB), Leukemia; assay type: cell-based
RXF 393 = test: NCI 60 cell line screen (SRB), Renal Cancer; assay type: cell-based
NCI-H522 = test: NCI 60 cell line screen (SRB), Non-Small Cell Lung Cancer; assay type: cell-based
PC-3 = test: NCI 60 cell line screen (SRB), Prostate Cancer; assay type: cell-based
NCI-H226 = test: NCI 60 cell line screen (SRB), Non-Small Cell Lung Cancer; assay type: cell-based
CAKI-1 = test: NCI 60 cell line screen (SRB), Renal Cancer; assay type: cell-based
NCI-H460 = test: NCI 60 cell line screen (SRB), Non-Small Cell Lung Cancer; assay type: cell-based
DU-145 = test: NCI 60 cell line screen (SRB), Prostate Cancer; assay type: cell-based
MDA-MB231/ATCC = test: NCI 60 cell line screen (SRB), Breast Cancer; assay type: cell-based; conditions: MDA- (first line of MDA-MB231/ATCC)
LOX IMVI = test: NCI 60 cell line screen (SRB), Melanoma; assay type: cell-based
U251 = test: NCI 60 cell line screen (SRB), CNS Cancer; assay type: cell-based
NCI-H322M = test: NCI 60 cell line screen (SRB), Non-Small Cell Lung Cancer; assay type: cell-based
MOLT-4 = test system: MOLT-4
Experimental: The screening assay is performed on 96-well microtitre plates. Relatively high initial inoculation densities are used, in order to permit measurement of “time-zero” values and to enhance the screen's ability to detect and provide some differentiation between antiproliferative and cytotoxic response parameters. […] The inoculated microtitre plates are pre-incubated for 24 hours at 37θC prior to drug additions. The five drug dilutions tested routinely range from 10^−4 to 10^−8 molar. Higher or lower concentration ranges may be selected on a nonroutine basis if appropriate solubility and/or prior biological information or other screening data so dictate. Duplicate wells are prepared for all concentrations, (concentration is often denoted by placing brackets around a number); “time-zero” and “no drug” controls are also provided for each test. The minimum amount of compound required for a one-time evaluation in the routine screen can be calculated from the knowledge that each test requires a total of approximately 40 ml (0.04 liter) of cell culture medium containing the highest desired drug concentration. Thus, the amount (grams) of sample required (assuming an upper test concentration limit of 10^−4 M) is: molecular weight of compound×[…]. After a 48 hour incubation (37θC) with the test compound, the cells are fixed in situ to the bottoms of the microtitre wells by addition of 50 ul of either 50% trichloroacetic acid (for adherent cell lines) or 80% trichloroacetic acid (for settled cell suspension lines), followed by incubation for 60 minutes at 4θC. The cellular protein in each well is assayed using a sulforhodamine B (SRB) stain procedure. Briefly, after discarding the supernatants, the microtitre plates are washed 5 times with deionized water and air-dried. One hundred microliters of SRB solution (0.4% w/v in 1% acetic acid) is added to each microtitre well and incubated for 10 minutes at room temperature. Unbound SRB is removed by washing 5 times with 1 % acetic acid. The plates are air-dried, the bound stain is solubilized with Tris buffer, and the optical densities read at 515 nm. SRB is a bright pink anionic dye which, in dilute acetic acid, binds electrostatically to the basic amino acids of TCA-fixed cells. Cryopreserved master stocks of all the lines are maintained, and cultures used for screening are replaced from the master stock after no more than twenty passages in the screening laboratory. The cell line panel consists of 60 lines, organized into nine, disease-related subpanels including leukemia, non-small-cell lung cancer, colon, CNS, melanoma, ovarian, renal, prostate and breast cancers.
The response parameters G150 and LC50 are interpolated values representing the concentrations at which the percentage growth (PG) is +50 and −50, respectively:
GI50 is the concentration for which the PG=+50. At this value the increase from time tzero, in the number or mass of cells in the test well is only 50% as much as the corresponding increase in the control well during this period of the experiment, see Table II. A drug effect of this intensity is interpreted as primary growth inhibition.
TGI is the concentration for which PG=0. At this value the number or mass of cells in the well at the end of the experiment equals the number or mass of cells in the well at time tzero, see Table III. A drug effect of this intensity is regarded as cytostasis.
LC50 is the concentration for which the PG=−50. At this value, the number or mass of cells in the test well at the end of the experiment is half that at time tzero, see Table IV. This is interpreted as cytotoxicity.

UACC-257 = test: NCI 60 cell line screen (SRB), Melanoma; assay type: cell-based
SK-MEL-5 = test: NCI 60 cell line screen (SRB), Melanoma; assay type: cell-based

Q: What does the source list for CC1=C(C=Cc2cccc(C=CC3=C(C)C4CCC(C)C5CCC6(C)OOC45C(O3)O6)c2)OC2OC3(C)CCC4C(C)CCC1C24OO3 (stereo not shown) [VII-f]?
A: Log10TGI (K-562; PG=0): −6.18 log10M; Log10GI50 (K-562; PG=+50): −6.18 log10M; Log10GI50 (K-562; Table IV (LC50, PG=−50)): >−4.00 log10M; Log10TGI (RXF 393; PG=0): >−4.00 log10M; Log10GI50 (RXF 393; PG=+50): −5.91 log10M; Log10GI50 (RXF 393; Table IV (LC50, PG=−50)): >−4.00 log10M; Log10TGI (NCI-H522; PG=0): >−4.00 log10M; Log10GI50 (NCI-H522; PG=+50): −6.07 log10M; Log10GI50 (NCI-H522; Table IV (LC50, PG=−50)): >−4.00 log10M; Log10TGI (PC-3; PG=0): >−4.00 log10M; Log10 GI50 (PG=+50) or LC50 (PG=−50) (PC-3; PG=+50): −6.30 log10M; Log10 GI50 (PG=+50) or LC50 (PG=−50) (PC-3; Table IV (LC50, PG=−50)): >−4.00 log10M; Log10TGI (NCI-H226; PG=0): >−4.00 log10M; Log10GI50 (NCI-H226; PG=+50): −4.61 log10M; Log10GI50 (NCI-H226; Table IV (LC50, PG=−50)): >−4.00 log10M; Log10TGI (CAKI-1; PG=0): >−4.00 log10M; Log10GI50 (CAKI-1; PG=+50): −5.17 log10M; Log10GI50 (CAKI-1; Table IV (LC50, PG=−50)): >−4.00 log10M; Log10TGI (NCI-H460; PG=0): >−4.00 log10M; Log10 GI50 or Log10 LC50 (NCI-H460; PG=+50): −6.03 log10M; Log10TGI (DU-145; PG=0): >−4.00 log10M; Log10GI50 (DU-145; PG=+50): −5.16 log10M; Log10GI50 (DU-145; Table IV (LC50, PG=−50)): >−4.00 log10M; Log10TGI (MDA-MB231/ATCC; PG=0): −4.70 log10M; Log10 GI50 or LC50 (per conditions) (MDA-MB231/ATCC; PG=+50): −5.67 log10M; Log10 GI50 or LC50 (per conditions) (MDA-MB231/ATCC; Table IV (LC50, PG=−50)): >−4.00 log10M; Log10TGI (LOX IMVI; PG=0): >−4.00 log10M; Log10GI50 (LOX IMVI; PG=+50): −5.79 log10M; Log10GI50 (LOX IMVI; Table IV (LC50, PG=−50)): >−4.00 log10M; Log10TGI (U251; PG=0): >−4.00 log10M; Log10GI50 (U251; PG=+50): −6.03 log10M; Log10GI50 (U251; Table IV (LC50, PG=−50)): >−4.00 log10M; Log10TGI (NCI-H322M; PG=0): −4.39 log10M; Log10GI50 (NCI-H322M; PG=+50): −6.05 log10M; drug concentration for cytotoxicity (percentage growth −50) (MOLT-4): greater than 10^−4 M; drug concentration for cytostasis (percentage growth 0) (MOLT-4; MOLT-4, FIGS. 6a-6e): approximately 10^−4 M; drug concentration for primary growth inhibition (percentage growth +50) (MOLT-4; MOLT-4, FIGS. 6a-6e): greater than 10^−6 molar; Log10GI50 (MOLT-4; MOLT-4, PG=+50): −6.23 log10M; Log10TGI (MOLT-4; MOLT−4, PG=0): −6.23 log10M; Log10GI50 (MOLT-4; Table IV (LC50, PG=−50), MOLT−4): >−4.00 log10M; Log10TGI (UACC-257; PG=0): >−4.00 log10M; Log10 GI50 (PG=+50) or Log10 LC50 (PG=−50) (UACC-257; PG=+50): −6.02 log10M; Log10 GI50 (PG=+50) or Log10 LC50 (PG=−50) (UACC-257; Table IV (LC50, PG=−50)): >−4.00 log10M; Log10TGI (SK-MEL-5; PG=0): −4.93 log10M; Log10 GI50 or LC50 (SK-MEL-5; PG=+50): −5.80 log10M; Log10 GI50 or LC50 (SK-MEL-5; Table IV (LC50, PG=−50)): >−4.00 log10M
